Patent US10172358B2, “Thiopicolinamide compounds with fungicidal activity” (Dow AgroSciences LLC, priority 2016, dated 2019)
Like-named read-outs stand apart in the source and are kept apart here.

Assays:
Puccinia triticina = test: Fungicidal activity: wheat brown rust (PUCCRT), disease control on wheat seedlings; format: in vivo, Puccinia triticina on wheat plants (variety Yuma); conditions: high volume application, 100 ppm
Experimental: Technical grades of materials were dissolved in acetone, which were then mixed with nine volumes of water (H2O) containing 110 ppm Triton X-100. The fungicide solutions were applied onto wheat seedlings using an automated booth sprayer to run-off. All sprayed plants were allowed to air dry prior to further handling. All fungicides were evaluated using the aforementioned method for their activity vs. all target diseases, unless stated otherwise. Wheat leaf blotch and brown rust activity were also evaluated using track spray applications, in which case the fungicides were formulated as EC formulations, containing 0.1% Trycol 5941 in the spray solutions. Evaluation of Fungicidal Activity: Wheat Brown Rust (Puccinia triticina; Synonym: Puccinia recondita f. Sp. Tritici; Bayer Code PUCCRT) Wheat plants (variety Yuma) were grown from seed in a greenhouse in 50% mineral soil/50% soil-less Metro mix until the first leaf was fully emerged, with 7-10 seedlings per pot. These plants were inoculated with an aqueous spore suspension of Puccinia triticina either prior to or after fungicide treatments. After inoculation the plants were kept in a dark dew room at 22° C. with 100% relative humidity overnight to permit spores to germinate and infect the leaf. The plants were then transferred to a greenhouse set at 24° C. for disease to develop. Fungicide formulation, application and disease assessment followed the procedures as described in the Example A. The results of the evalution are shown below in Table 4.

Zymoseptoria tritici = test: Fungicidal activity: leaf blotch of wheat (SEPTTR), disease control on wheat seedlings; format: in vivo, Zymoseptoria tritici on wheat plants (variety Yuma); conditions: for pest or weed control at 100 ppm: high volume application
Experimental: Evaluation of Fungicidal Activity: Leaf Blotch of Wheat (Zymoseptoria Tritici; Bayer Code […]) Technical grades of materials were dissolved in acetone, which were then mixed with nine volumes of water (H2O) containing 110 ppm Triton X-100. The fungicide solutions were applied onto wheat seedlings using an automated booth sprayer to run-off. All sprayed plants were allowed to air dry prior to further handling. All fungicides were evaluated using the aforementioned method for their activity vs. all target diseases, unless stated otherwise. Wheat leaf blotch and brown rust activity were also evaluated using track spray applications, in which case the fungicides were formulated as EC formulations, containing 0.1% Trycol 5941 in the spray solutions. Wheat plants (variety Yuma) were grown from seed in a greenhouse in 50% mineral soil/50% soil-less Metro mix until the first leaf was fully emerged, with 7-10 seedlings per pot. These plants were inoculated with an aqueous spore suspension of Zymoseptoria tritici either prior to or after fungicide treatments. After inoculation the plants were kept in 100% relative humidity (one day in a dark dew chamber followed by two to three days in a lighted dew chamber at 20° C.) to permit spores to germinate and infect the leaf. The plants were then transferred to a greenhouse set at 20° C. for disease to develop. When disease symptoms were fully expressed on the 1st leaves of untreated plants, infection levels were assessed on a scale of 0 to 100 percent disease severity. Percent disease control was calculated using the ratio of disease severity on treated plants relative to untreated plants.

[1] = 24 h, 1 day protectant, read-out: PUCCRT 1DP disease control, HV activity at 100 ppm
[2] = 72 h, 3 day curative, read-out: PUCCRT 3DC disease control, HV activity at 100 ppm
[3] = 24 h, 1 day protectant, read-out: SEPTTR 1DP disease control, HV activity at 100 ppm
[4] = 72 h, 3 day curative, read-out: SEPTTR 3DC disease control, HV activity at 100 ppm

Row | SMILES | pest or weed control at 100 ppm (Puccinia triticina; [1]) | pest or weed control at 100 ppm (Puccinia triticina; [2]) | pest or weed control at 100 ppm (Zymoseptoria tritici; [3]) | pest or weed control at 100 ppm (Zymoseptoria tritici; [4]) | pest or weed control at 121.5 g/ha (Zymoseptoria tritici; 24 h, low volume application, 121.5 g/H, 1 day protectant, read-out: SEPTTR 1DP disease control, LV activity at 121.5 g/H)
1 | COc1ccnc(C(=S)N[C@@H](C)C(=O)O[C@H](C(C)C)[C@H](C)Oc2ccc(C)cc2)c1O [Compound 1] | > 80% | > 80% | ≤ 80% | ≤ 80% | –
2 | COc1ccnc(C(=S)N[C@@H](C)C(=O)O[C@@H](C)C(c2ccc(Cl)cc2)c2ccc(Cl)cc2)c1O [Compound 2] | > 80% | – | > 80% | > 80% | –
3 | COc1ccnc(C(=S)N[C@@H](C)C(=O)O[C@@H](C)C(c2ccc(C)cc2C)c2ccc(C)cc2C)c1O [Compound 3] | > 80% | – | > 80% | > 80% | –
4 | COc1ccnc(C(=S)N[C@@H](C)C(=O)O[C@@H](C)[C@@H](c2ccccc2)c2ccc(F)cc2)c1O [Compound 4] | > 80% | – | > 80% | > 80% | –
5 | COc1ccc(C(c2ccc(OC)cc2F)[C@H](C)OC(=O)[C@H](C)NC(=S)c2nccc(OC)c2O)c(F)c1 [Compound 5] | > 80% | – | > 80% | > 80% | –
6 | COc1ccnc(C(=S)N[C@@H](C)C(=O)O[C@@H](C)[C@@H](c2ccc(C)cc2)c2ccc(F)cc2C)c1O [Compound 6] | > 80% | ≤ 80% | > 80% | > 80% | –
7 | COc1ccnc(C(=S)N[C@@H](C)C(=O)O[C@H](C)C(c2ccc(F)cc2)c2ccc(F)cc2)c1O [Compound 7] | ≤ 80% | – | ≤ 80% | – | –
8 | CCCCC[C@@H](OC(=O)[C@H](C)NC(=S)c1nccc(OC)c1O)[C@H](C)Oc1ccccc1 [Compound 8] | > 80% | – | ≤ 80% | ≤ 80% | –
9 | COc1ccnc(C(=S)N[C@@H](C)C(=O)O[C@@H](C)[C@H](Oc2ccc(Cl)cc2Cl)c2ccccc2)c1O [Compound 9] | > 80% | – | > 80% | > 80% | –
10 | CCCCC[C@H](OC(=O)[C@H](C)NC(=S)c1nccc(OC)c1O)[C@@H](C)Oc1ccccc1 [Compound 10] | ≤ 80% | – | – | – | –
11 | COc1ccc(O[C@@H](C)[C@H](OC(=O)[C@H](C)NC(=S)c2nccc(OC)c2O)C(C)C)cc1 [Compound 11] | > 80% | > 80% | > 80% | ≤ 80% | –
12 | COc1cc(F)ccc1[C@H](c1ccccc1)[C@H](C)OC(=O)[C@H](C)NC(=S)c1nccc(OC)c1O [Compound 12] | > 80% | ≤ 80% | > 80% | ≤ 80% | –
13 | COc1ccccc1C(c1ccccc1OC)[C@H](C)OC(=O)[C@H](C)NC(=S)c1nccc(OC)c1O [Compound 13] | > 80% | ≤ 80% | > 80% | > 80% | –
14 | COc1cc(Cl)ccc1C(c1ccc(Cl)cc1OC)[C@H](C)OC(=O)[C@H](C)NC(=S)c1nccc(OC)c1O [Compound 14] | > 80% | ≤ 80% | > 80% | > 80% | –
15 | COc1ccnc(C(=S)N[C@H](C)C(=O)O[C@@H](C)C(c2ccc(F)cc2)c2ccc(F)cc2)c1O [Compound 15] | – | – | > 80% | – | –
16 | COc1ccnc(C(=S)N[C@@H](C)C(=O)O[C@H](CC(C)C)[C@H](C)Oc2ccccc2)c1O [Compound 21] | – | – | ≤ 80% | ≤ 80% | –
17 | CCC[C@H](OC(=O)[C@H](C)NC(=S)c1nccc(OC)c1O)[C@@H](C)Oc1ccccc1 [Compound 34] | – | – | ≤ 80% | – | –
18 | COc1ccnc(C(=S)N[C@@H](C)C(=O)O[C@H](C)C(c2ccc(F)cc2)c2ccc(F)cc2)c1OC(C)=O [Compound 55] | – | – | – | – | ≤ 80%
